What was measured:
[1] = test system: conversion of T cells into CD4+FoxP3+ Tregs; details: co-culture of DCs and naive CD4+CD25- T cells; cited from earlier work
PAN02 pancreatic cells = details: cited from earlier work
IDO1 = IDO1 (Homo sapiens, UniProt P14902); test: IDO1 HeLa RapidFire MS Assay; format: cell-based; design: stimulated with human interferon-γ (IFN-γ); details: HeLa cells stimulated with IFN-γ; kynurenine detected by mass spectrometry; 2 days; read-out: IDO1 HeLa pIC50 (converted)
Description: IDO1 HeLa RapidFire MS Assay
Compounds of the present invention were tested via high-throughput cellular assays utilizing detection of kynurenine via mass spectrometry and cytotoxicity as end-points. For the mass spectrometry and cytotoxicity assays, human epithelial HeLa cells (CCL-2; ATCC®, Manassas, Va.) were stimulated with human interferon-γ (IFN-γ) (Sigma-Aldrich Corporation, St. Louis, Mo.) to induce the expression of indoleamine 2, 3-dioxygenase (IDO1). Compounds with IDO1 inhibitory properties decreased the amount of kynurenine produced by the cells via the tryptophan catabolic pathway. Cellular toxicity due to the effect of compound treatment was measured using CellTiter-Glo® reagent (CTG) (Promega Corporation, Madison, Wis.), which is based on luminescent detection of ATP, an indicator of metabolically active cells. […]
Following incubation, the 384-well plates were removed from the incubator and allowed to equilibrate to room temperature for 30 minutes. […] After a twenty minute incubation at room temperature, luminescence was read on an EnVision® Multilabel Reader (PerkinElmer Inc., Waltham, Mass.). […]

IDO1, sequence (P14902 whole entry): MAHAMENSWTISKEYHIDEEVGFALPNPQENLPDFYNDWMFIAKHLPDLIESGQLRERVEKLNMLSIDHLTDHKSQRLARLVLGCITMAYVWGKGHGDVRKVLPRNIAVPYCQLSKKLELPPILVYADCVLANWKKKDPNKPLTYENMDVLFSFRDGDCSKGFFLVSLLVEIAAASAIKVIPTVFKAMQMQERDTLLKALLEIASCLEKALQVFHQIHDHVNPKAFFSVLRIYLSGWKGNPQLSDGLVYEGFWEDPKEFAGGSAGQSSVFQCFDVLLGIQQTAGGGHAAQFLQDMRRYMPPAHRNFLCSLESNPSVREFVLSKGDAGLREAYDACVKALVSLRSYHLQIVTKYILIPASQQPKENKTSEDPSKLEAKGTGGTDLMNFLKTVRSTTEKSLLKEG

Row | SMILES | conversion of T cells into CD4+FoxP3+ Tregs [1] | inhibition of tumor growth (PAN02 pancreatic cells; PAN02 syngeneic model, immunocompetent mice, orally dosed) | effect on tumor growth (PAN02 pancreatic cells; same tumor implanted in immune-deficient mice) | IC50 (IDO1) [nM]
1 | NS(=O)(=O)NCCNc1nonc1C(=NO)Nc1ccc(F)c(Br)c1 [INCB204360, epacadostat] | blocked the conversion | significant dose-dependent inhibition of tumor growth | without effect | 
2 | CC(C)CN(c1ccc(C2(C(=O)O)CC2)nc1Nc1ccc(Cl)cn1)C1CCOCC1 [Example 15, 1-(6-((5-chloropyridin-2-yl)amino)-5-(isobutyl(tetrahydro-2H-pyran-4-yl)amino)pyridin-2-yl)cyclopropane-1-carboxylic acid] |  |  |  | 158
3 | CC(C)CN(c1ccc(C2(C(=O)NS(C)(=O)=O)CC2)nc1Nc1ccc(Cl)cn1)C1CCOCC1 [Example 16, 1-(6-((5-chloropyridin-2-yl)amino)-5-(isobutyl(tetrahydro-2H-pyran-4-yl)amino)pyridin-2-yl)-N-(methylsulfonyl)cyclopropane-1-carboxamide] |  |  |  | 10

Reference: patent publication US20210139467A1 (GLAXOSMITHKLINE INTELLECTUAL PROPERTY DEVELOPMENT LIMITED, priority 2017, published 2021)
